Results published in US9580498B2, “Monoclonal antibody for antagonizing and inhibiting binding of vascular endothelial growth factor to its receptor, and coding sequence” (SUZHOU STAINWEI BIOTECH INC., priority 2012, dated 2017).

How the values were obtained:
Format in all cases: in vivo
human HCT-8 colon cancer = assay: Transplanted human HCT-8 colon cancer in nude mice; conditions: 5 mg/kg i.p. twice a week for 4 weeks; day 30
Description: The establishing method is basically the same as that in Example 10.
Observing the tumor growth of the nude mice inoculated with the human HCT-8 colon cancer and, when the tumor volume is about 50-100 mm^3, screening according to the size of the tumor volume, with the too large tumor and minor tumor not selected.
The above nude mice inoculated with human HCT-8 colon cancer were divided into the following seven groups (8 mice/group) for administration, intraperitoneally injecting twice a week successively for 4 weeks, and ending the test on the 30th day (D30).
(§1) At the end of experiment, tumors were removed after euthanasia, and the tumor weight were measured. The treatment effect was measured by the ratio of tumor size in the testing group (T) versus the control group (C), i.e. T/C %.
After the first treatment, the long and short diameters of the tumor were measured twice a week, and the tumor volume V and the relative tumor volume RTV thereof (Vt/VO) were calculated
At day 30, each animal was euthanized, and its tumor was removed and weighted and the average tumor weight in each group was calculated.

[1] = system: human A673 rhabdomyosarcoma; assay: Transplanted human A673 rhabdomyosarcoma in nude mice; conditions: 5 mg/kg i.p. twice a week for 3 weeks; day 22
Description: The establishment of this tumor method is basically the same as that in Example 10.
(§2) Nude mice were inoculated with human A673 rhabdomyosarcoma. When the tumor volume reached about 50-100 mm^3, a screening was done and those mice bearing tumors too small or too large in size were excluded. The selected mice were then randomly divided into different groups for different doses of drugs
Dividing the above nude mice inoculated with the human A673 rhabdomyosarcoma into the following six groups (6 mice/group) for administration, intraperitoneally injecting twice a week successively for 3 weeks, and ending the test on the 22nd day (D22).
as §1
(§3) After the first administration, the long and short diameters of the tumor were measured twice a week, and the tumor volume (V) and the relative tumor volume RTV thereof (Vt/VO) were calculated.
At day 22, each animal was euthanized, and its tumor was removed and weighted and the average tumor weight in each group was calculated.

[2] = system: human MDA-MB-231 breast cancer; assay: Transplanted human MDA-MB-231 breast cancer in nude mice; conditions: 5 mg/kg i.p. twice a week for 5 weeks; day 36
Description: The tumor model establishment is basically the same as that in Example 10.
as §2, with “MDA-MB-231 breast cancer.” for “A673 rhabdomyosarcoma.”
The above nude mice inoculated with human MDA-MB-231 breast cancer were divided into the following five treatment groups (7 mice/group). Antibodies were injected intraperitoneally twice a week for 5 weeks, and ending the test on the 36th day (D36).
as §1, §3
At day 36, each animal was euthanized, and its tumor was removed and weighted and the average tumor weight in each group was calculated.

[3] = system: human Ls-174-T colon cancer; assay: Transplanted human Ls-174-T colon cancer in nude mice; conditions: 5 mg/kg i.p. twice a week for 4 weeks; day 29
Procedure: Two nude mice were prepared to serve as tumor bearing mice. 1×10^7 of human Ls-174-T colon cancer cells (purchased from Cell Preservation Center of Shanghai Institutes for Biological Sciences, Chinese Academy of Sciences) at the log-growth cycle, or tumor mass in a size of about 1.5 mm^3, were inoculated subcutaneously into the right armpit of these two nude mice. […]
as §1
After the first administration, both the long and short diameters of tumors were recorded twice a week, and tumor volume (V) and the relative tumor volume (RTV) were calculated. The calculation formula for RTV is: RTV=Vt/Vo, where Vt is the tumor volume measured at each time point (day), and Vo is the initial (before administration) tumor volume.
At day 29, each animal was euthanized, and its tumor was removed and weighted and the average tumor weight in each group was calculated.

Molecule	average tumor weight (human HCT-8 colon cancer) [g]	tumor weight inhibition rate (human HCT-8 colon cancer) [%]	average tumor weight [1] [g]	tumor weight inhibition rate [1] [%]	average tumor weight [2] [g]	tumor weight inhibition rate [2] [%]	average tumor weight [3] [g]	tumor weight inhibition rate [3] [%]
N.N.[Cl][Pt][Cl] [cisplatin, reference compound]	1.201	25.29						
Avastin: humanized anti-VEGF monoclonal antibody drug developed and produced by Roche/Genentech [reference compound]			3.323	61.92	0.543	38.99	0.767	74.05
